From patent US8207193B2 (priority 2006, dated 2012)

Assays:
[1] = target: human muscarinic acetylcholine M3 receptor (M3-ACh) (Homo sapiens, UniProt P20309); assay: biochemical; type: binding
[2] = Measurement of plasma protein binding by equilibrium dialysis; conditions: 37° C., 5 μM compound

Sequence of human muscarinic acetylcholine M3 receptor (M3-ACh) (P20309 whole entry): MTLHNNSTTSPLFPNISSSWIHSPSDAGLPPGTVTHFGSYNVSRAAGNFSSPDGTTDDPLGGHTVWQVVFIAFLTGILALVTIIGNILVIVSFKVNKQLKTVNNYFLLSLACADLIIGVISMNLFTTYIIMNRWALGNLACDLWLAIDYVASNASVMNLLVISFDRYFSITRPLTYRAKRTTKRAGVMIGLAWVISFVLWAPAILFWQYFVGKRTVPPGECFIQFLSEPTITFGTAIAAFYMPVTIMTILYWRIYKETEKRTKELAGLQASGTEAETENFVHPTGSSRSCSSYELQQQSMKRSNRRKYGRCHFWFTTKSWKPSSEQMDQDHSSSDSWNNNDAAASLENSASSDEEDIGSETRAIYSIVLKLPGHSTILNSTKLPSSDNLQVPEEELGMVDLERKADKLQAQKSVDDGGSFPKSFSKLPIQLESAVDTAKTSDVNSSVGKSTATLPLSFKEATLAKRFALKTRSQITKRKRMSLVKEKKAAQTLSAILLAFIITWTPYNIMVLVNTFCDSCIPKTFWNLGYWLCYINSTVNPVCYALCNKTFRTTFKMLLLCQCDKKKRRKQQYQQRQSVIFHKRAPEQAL

| SMILES | IC50 ([1]; M3 binding IC50) | human plasma protein binding [2] | IC50 ([1]; pIC50 of comparative compounds containing a cyclohexyl (C6) ring in place of cycloheptyl (C7)) |
| --- | --- | --- | --- |
| O=C(C[N+]12CCC(CC1)[C@@H](OC(=O)C1(c3ccccc3)CCCCCC1)C2)Nc1cnccn1.[Br-] [Example 16, (3R)-1-[2-Oxo-2-(pyrazin-2-ylamino)ethyl]-3-{[(1-phenylcycloheptyl)carbonyl]oxy}-1-azoniabicyclo[2.2.2]octane Bromide] | < 2 nM | 94 % bound |  |
| O=C(C[N+]12CCC(CC1)[C@@H](OC(=O)C1(c3ccccc3)CCCCCC1)C2)Nc1ccc(Cl)nn1 [Example 21, (3R)-1-{2-[(6-Chloropyridazin-3-yl)amino]-2-oxoethyl}-3-{[(1-phenylcycloheptyl)carbonyl]oxy}-1-azoniabicyclo[2.2.2]octane Bromide] | < 2 nM |  |  |
| O=C(O[C@H]1C[N+]2(Cc3cccc(OC(F)(F)F)c3)CCC1CC2)C1(c2ccccc2)CCCCCC1 [Example 7, (3R)-3-{[(1-Phenylcycloheptyl)carbonyl]oxy}-1-[3-(trifluoromethoxy)benzyl]-1-azoniabicyclo[2.2.2]octane Bromide] | > 10 nM |  |  |
| O=C(O[C@H]1C[N+]2(CCc3ccc4c(c3)OCO4)CCC1CC2)C1(c2ccccc2)CCCCCC1 [Example 28, (3R)-1-[2-(1,3-Benzodioxol-5-yl)ethyl]-3-{[(1-phenylcycloheptyl)carbonyl]oxy}-1-azoniabicyclo[2.2.2]octane bBromide] | < 2 nM |  |  |
| O=C(O[C@H]1C[N+]2(CCc3ccccc3)CCC1CC2)C1(c2ccccc2)CCCCCC1 [Example 26, (3R)-3-{[(1-Phenylcycloheptyl)carbonyl]oxy}-1-(2-phenylethyl)-1-azoniabicyclo[2.2.2]octane Bromide] | < 2 nM |  |  |
| O=C(C[N+]12CCC(CC1)[C@@H](OC(=O)C1(c3ccccc3)CCCCC1)C2)Nc1cnccn1 [compound 6, (3R)-1-[2-Oxo-2-(pyrazin-2-ylamino)ethyl]-3-{[(1-phenylcyclohexyl)carbonyl]oxy}-1-azoniabicyclo[2.2.2]octane Bromide, reference compound] |  |  | 0.2 nM |
| O=C(O[C@H]1C[N+]2(Cc3ccccc3)CCC1CC2)C1(c2ccccc2)CCCCCC1 [Example 6, (3R)-1-Benzyl-3-{[(1-phenylcycloheptyl)carbonyl]oxy}-1-azoniabicyclo[2.2.2]octane Bromide] | > 10 nM |  |  |
| N#Cc1ccc(CC[N+]23CCC(CC2)[C@@H](OC(=O)C2(c4ccccc4)CCCCCC2)C3)cc1 [Example 29, (3R)-1-[2-(4-Cyanophenyl)ethyl]-3-{[(1-phenylcycloheptyl)carbonyl]oxy}-1-azoniabicyclo[2.2.2]octane Bromide] | 2 to 10 nM |  |  |
| COc1cccc(CC[N+]23CCC(CC2)[C@@H](OC(=O)C2(c4ccccc4)CCCCCC2)C3)c1 [Example 24, (3R)-1-[2-(3-Methoxyphenyl)ethyl]-3-{[(1-phenylcycloheptyl)carbonyl]oxy}-1-azoniabicyclo[2.2.2]octane Bromide] | < 2 nM |  |  |
